Measured values from patent US4738979A, “α2 -blocking derivatives of imidazole” (G. D. Searle & Co., priority 1985, dated 1988).
Entries after “also recorded” stand apart in the source; their conditions may differ. Where two headings read alike, the source gives them in different places.

Columns and labels:
Format in all cases: in vivo
[1] = system: 3-mercaptopropionic acid (3-MPA)-induced tonic extension in mice; assay: protection against 3-mercaptopropionic acid (3-MPA)-induced tonic extension in mice; details: 100 mg/kg orally, 30 minutes prior to 3-MPA (120 mg/kg s.c.)
Procedure: In the second study the anti-convulsant effect of the compounds of the present invention was examined in two seizure models; bicuculline-induced tonic extension in mice and 3-mercaptopropionic acid (3-MPA)-induced tonic extension in mice.
In the bicuculline study, the ability of the compounds of the present invention to protect against tonic extension (involving rigidity) was evaluated as follows. Each test compound was administered to a group of ten mice at a dose of 10 mg/kg, 3 hours prior to the i.v. administration of bicuculline (0.7 mg/kg). Anticonvulsant activity in this test is expressed as percentage of animals tested. The results are given in Table II, column 6, and indicate that several compounds display significant anticonvulsive activity in this test. The anticonvulsant effect of the compounds has also been tested with respect to the tonic extension induced by 3-mercaptopropionic acid (120 mg/kg subcutaneously) in mice.
In the 3-MPA assay, the compounds of the present invention are administered orally at a dose of 100 mg/kg 30 minutes prior to administration of 3-MPA. Each compound was tested on a group of 5 mice; if more than 1 mouse was protected, a second group of 5 mice was tested.

[2] = system: clonidine-induced depression of locomotor activity and rearing activity; assay: clonidine-induced depression of locomotor activity, open field test in mice; details: for minimal effective dose: Mus musculus, 2 hours prior to clonidine 0.3 mg/kg p.o.
Excerpt: The third in vivo study evaluation activity of the compounds of the invention on clonidine induced depression of locomotor activity. The previously-discussed study involving clonidine related to its α2 agonist effects on the brain's regulation of the cardiovascular system. The present study involved clonidine α2 agonist effects on central control of locomotor activity. Clonidine inhibits locomotor activity and rearing activity in the mouse. In this "open field" test, mice are pretreated with the compounds of the present invention at doses of 1 to 10 mg/kg p.o. […] Each compound was evaluated for its ability to antagonize the effect of clonidine. […] Compound No. 1 antagonizes clonidine-induced depression of locomotor activity and rearing activity from 1 mg/kg p.o. and from 3 mg/kg p.o., respectively. The effects of chronic administration of compound No. 1 were also evaluated in this test. In this study, groups of 5-6 mice were treated with compound No. 1 (3 mg/kg p.o.) either twice daily for 14 days (chronic) or with one single dose (acute).

[3] = system: 5-methoxy-N,N-dimethyltryptamine-induced head twitching (serotoninergic syndrome); assay: head twitches induced by 5-methoxy-N,N-dimethyltryptamine in mice
Excerpt: The fourth in vivo study evaluated activity of the compounds of the invention on serotonin agonist-induced head twitching (serotoninergic syndrome). The compound 5-methoxy-N,N-dimethyl tryptamine is a serotonin agonist which induces head twitching in mice. The activity of this tryptamine compound is increased by antidepressant drugs. This study evaluated the ability of the compounds of the present invention to influence the effect of the tryptamine-induced head twitching (E. Friedman, et al., Eur. J. Pharmacol., 89, 69-76, 1983).
The compounds to be tested were administered to mice at the dose of 3 mg/kg p.o. either acutely or chronically twice a day continually for 2 weeks. The increased head twitching caused by the tryptamine compound (2 mg/kg i.p.) was observed 1, 24 and 72 hours after the last administration of the test compound.

| SMILES | anticonvulsant effect versus 3-MPA (in words) [1] | activity in the open field test after chronic administration (in words) ([2]; 3 mg/kg p.o. twice daily 14 days, clonidine 0.15 mg/kg i.p.) | minimal effective dose ([2]; mice, read-out: active dose antagonizing clonidine-induced depression of locomotor activity) [mg/kg] | minimal effective dose ([2]; mice, read-out: active dose antagonizing clonidine-induced depression of rearing activity) [mg/kg] | % Inhibition of the Effect of Clonidine on Locomotor Activity in Mice ([2]; acute, 3 mg/kg p.o., 1 h after last administration, clonidine 0.15 mg/kg i.p.) [%] | % Inhibition of the Effect of Clonidine on Locomotor Activity in Mice ([2]; chronic, 3 mg/kg p.o. twice daily 14 days, 1 h after last administration, clonidine 0.15 mg/kg i.p.) [%] | % Inhibition of the Effect of Clonidine on Locomotor Activity in Mice ([2]; chronic, 3 mg/kg p.o. twice daily 14 days, 24 h after last administration, clonidine 0.15 mg/kg i.p.) [%] | % Inhibition of the Effect of Clonidine on Locomotor Activity in Mice ([2]; chronic, 3 mg/kg p.o. twice daily 14 days, 72 h after last administration, clonidine 0.15 mg/kg i.p.) [%] | accumulation of the compound after chronic administration (in words) ([2]; inferred from open field activity after withdrawal, 14 days twice daily) | activity in the open field test (in words) ([2]; mice, 1 to 10 mg/kg p.o., clonidine 0.3 mg/kg p.o.) | Head Twitches/5 Minutes, percent compared to the vehicle treated group ([3]; acute, 3 mg/kg p.o., 1 h after last treatment, tryptamine compound 2 mg/kg i.p.) [%] | Head Twitches/5 Minutes, percent compared to the vehicle treated group ([3]; chronic, 3 mg/kg p.o. twice a day 2 weeks, 1 h after last treatment) [%] | Head Twitches/5 Minutes, percent compared to the vehicle treated group ([3]; chronic, 3 mg/kg p.o. twice a day 2 weeks, 24 h after last treatment) [%] | Head Twitches/5 Minutes, percent compared to the vehicle treated group ([3]; chronic, 3 mg/kg p.o. twice a day 2 weeks, 72 h after last treatment) [%] |
| --- | --- | --- | --- | --- | --- | --- | --- | --- | --- | --- | --- | --- | --- | --- |
| c1ccc(C(Cc2c[nH]cn2)c2ccccc2)cc1 [Compound 1, 4(5)-(2,2-diphenylethyl)-imidazole] | potent anticonvulsant effect | at the same level as after acute administration; also recorded: disappeared 24 hours after withdrawal of the drug | ≥ 1 | ≥ 3 | 52 | 59 | 3 | 5 | Accumulation of the compound does not appear to occur | particularly active | 171 | 278 | 210 | 211 |
| Clc1ccccc1C(Cc1c[nH]cn1)c1ccccc1 (stereo not shown) [Compound 13, 4(5)-{[2-(2-chlorophenyl)-2-phenyl]ethyl}imidazole] | potent anticonvulsant effect |  |  |  |  |  |  |  |  |  |  |  |  |  |
| Cc1ccc(C)c(C(Cc2c[nH]cn2)c2ccccc2)c1 (stereo not shown) [Compound 16] | potent anticonvulsant effect |  |  |  |  |  |  |  |  |  |  |  |  |  |
